Measured values: US20230017045A1, “PYRIDINE AND PYRIMIDINE CARBOXYLATE HERBICIDES AND METHODS OF USE THEREOF” (Dow AgroSciences LLC, priority 2017, published 2023)
Read-outs that look alike come from different tables or passages of the source.

System: test plant species
Assay: Post-emergent herbicidal activity test (greenhouse, foliar spray, visual growth reduction)
Format: in vivo
Details: post-emergence, 336 h, 140 g ai/ha
Procedure, shortened: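 Scoring used a 0 to 100 percent visual scale of growth reduction against solvent-treated controls, read 14 d after spraying. Applications went onto plants at first or second true leaf stage, 187 L/ha, with crop oil concentrate and X-77 surfactant in the carrier. Post-treatment watering was by subirrigation to avoid wash-off.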

[1] = ECHCG: barnyardgrass (Echinochloa crus-galli), 14 days after application, read-out: Visual Growth Reduction (%) 14 Days After Application, ECHCG
[2] = IPOHE: ivy-leaf morning glory (Ipomoea hederacea), 14 days after application, read-out: Visual Growth Reduction (%) 14 Days After Application, IPOHE
[3] = KCHSC: kochia (Bassia scoparia), 14 days after application, read-out: Visual Growth Reduction (%) 14 Days After Application, KCHSC
[4] = ORYSA: rice (Oryza sativa), 14 days after application, read-out: Visual Growth Reduction (%) 14 Days After Application, ORYSA
[5] = SETFA: giant foxtail (Setaria faberi), 14 days after application, read-out: Visual Growth Reduction (%) 14 Days After Application, SETFA
[6] = SORVU: grain sorghum (Sorghum vulgare), 14 days after application, read-out: Visual Growth Reduction (%) 14 Days After Application, SORVU
[7] = STEME: common chickweed (Stellaria media), 14 days after application, read-out: Visual Growth Reduction (%) 14 Days After Application, STEME
[8] = TRZAS: wheat, spring (Triticum aestivum), 14 days after application, read-out: Visual Growth Reduction (%) 14 Days After Application, TRZAS
[9] = blackgrass (Alopecurus myosuroides), 14 Days After Application, read-out: Visual Growth Reduction (%) ALOMY
[10] = canada thistle (Cirsium arvense), 14 Days After Application, read-out: Visual Growth Reduction (%) CIRAR
[11] = crabgrass (Digitaria sanguinalis), 14 Days After Application, read-out: Visual Growth Reduction (%) DIGSA
[12] = lambsquarters (Chenopodium album), 14 Days After Application, read-out: Visual Growth Reduction (%) CHEAL
[13] = redroot pigweed (Amaranthus retroflexus), 14 Days After Application, read-out: Visual Growth Reduction (%) AMARE
[14] = wild oat (Avena fatua), 14 Days After Application, read-out: Visual Growth Reduction (%) AVEFA
[15] = yellow nutsedge (Cyperus esculentus), 14 Days After Application, read-out: Visual Growth Reduction (%) CYPES

Row | SMILES | pest or weed control at 140 g/ha [1] | pest or weed control at 140 g/ha [2] | pest or weed control at 140 g/ha [3] | pest or weed control at 140 g/ha [4] | pest or weed control at 140 g/ha [5] | pest or weed control at 140 g/ha [6] | pest or weed control at 140 g/ha [7] | pest or weed control at 140 g/ha [8] | pest or weed control at 140 g/ha [9] | pest or weed control at 140 g/ha [10] | pest or weed control at 140 g/ha [11] | pest or weed control at 140 g/ha [12] | pest or weed control at 140 g/ha [13] | pest or weed control at 140 g/ha [14] | pest or weed control at 140 g/ha [15]
1 | COC(=O)c1nc(-c2cc([N+](=O)[O-])c(C(F)(F)F)cc2Cl)c(F)cc1Cl [F322, Methyl 3-chloro-6-(2-chloro-5-nitro-4-(trifluoromethyl)phenyl)-5-fluoropicolinate] | 0 to 29% | 95 to 100% | 0 to 29% | 0 to 29% | 0 to 29% | 0 to 29% | 0 to 29% | 0 to 29% | 0 to 29% | 30 to 44% | 0 to 29% | 75 to 84% | 60 to 74% | 0 to 29% | 0 to 29%
2 | COC(=O)c1nc(-c2cc(F)c(C(F)(F)F)cc2F)ccc1Cl [F323, Methyl 3-chloro-6-(2,5-difluoro-4-(trifluoromethyl)phenyl)picolinate] | 0 to 29% | 95 to 100% | 30 to 44% | 0 to 29% | 30 to 44% | 85 to 94% | 0 to 29% | 0 to 29% | 0 to 29% | 45 to 59% | 75 to 84% | 85 to 94% | 75 to 84% | 0 to 29% | 45 to 59%
3 | COC(=O)c1nc(-c2cc(F)c(C(F)(F)F)cc2F)c(F)cc1Cl [F324, Methyl 3-chloro-6-(2,5-difluoro-4-(trifluoromethyl)phenyl)-5-fluoropicolinate] | 0 to 29% | 95 to 100% | 85 to 94% | 0 to 29% | 60 to 74% | 75 to 84% | 0 to 29% | 45 to 59% | 30 to 44% | – | 95 to 100% | 85 to 94% | 95 to 100% | 30 to 44% | 60 to 74%
4 | COC(=O)c1nc(-c2cc(F)c(C(F)(F)F)cc2F)c(Cl)cc1Cl [F325, Methyl 3,5-dichloro-6-(2,5-difluoro-4-(trifluoromethyl)phenyl)picolinate] | 0 to 29% | 95 to 100% | 0 to 29% | 0 to 29% | 30 to 44% | 85 to 94% | 0 to 29% | 0 to 29% | 0 to 29% | 85 to 94% | 75 to 84% | 95 to 100% | 60 to 74% | 0 to 29% | 0 to 29%
5 | COC(=O)c1nc(-c2cc(C#N)c(C(F)(F)F)cc2Cl)ccc1Cl [F326, Methyl 3-chloro-6-(2-chloro-5-cyano-4-(trifluoromethyl)phenyl)picolinate] | 75 to 84% | 0 to 29% | 0 to 29% | 0 to 29% | 30 to 44% | 95 to 100% | 0 to 29% | 0 to 29% | 0 to 29% | 45 to 59% | 75 to 84% | 60 to 74% | 0 to 29% | 0 to 29% | 0 to 29%
6 | COC(=O)c1nc(-c2cc3nonc3cc2F)c(Cl)cc1Cl [F327, Methyl 3,5-dichloro-6-(6-fluorobenzo[c][1,2,5]oxadiazol-5-yl)picolinate] | 0 to 29% | 75 to 84% | 0 to 29% | 0 to 29% | 30 to 44% | 0 to 29% | 0 to 29% | 0 to 29% | 0 to 29% | 0 to 29% | 0 to 29% | 30 to 44% | 30 to 44% | 0 to 29% | 0 to 29%
7 | COC(=O)c1nc(-c2ccc(I)cc2F)c(F)cc1Cl [F328, methyl 3-chloro-5-fluoro-6-(2-fluoro-4-iodophenyl)picolinate] | 0 to 29% | 85 to 94% | 0 to 29% | 0 to 29% | 30 to 44% | 75 to 84% | 0 to 29% | 0 to 29% | 0 to 29% | 0 to 29% | 75 to 84% | 0 to 29% | 30 to 44% | 0 to 29% | 0 to 29%
8 | N#Cc1cc(-c2nc(C(=O)O)c(Cl)cc2F)c(Cl)cc1C(F)(F)F [F329, 3-Chloro-6-(2-chloro-5-cyano-4-(trifluoromethyl)phenyl)-5-fluoropicolinic acid] | 60 to 74% | 95 to 100% | 60 to 74% | 0 to 29% | 85 to 94% | 75 to 84% | 0 to 29% | 45 to 59% | 0 to 29% | 85 to 94% | 75 to 84% | 75 to 84% | 60 to 74% | 60 to 74% | 0 to 29%
9 | COC(=O)c1nc(-c2ccc3ccsc3c2F)c(Cl)cc1Cl [F330, Methyl 3,5-dichloro-6-(7-fluorobenzo[b]thiophen-6-yl)picolinate] | 0 to 29% | 0 to 29% | 0 to 29% | 0 to 29% | 0 to 29% | 0 to 29% | 0 to 29% | 0 to 29% | 0 to 29% | – | 0 to 29% | 0 to 29% | 0 to 29% | 0 to 29% | 30 to 44%
10 | COC(=O)c1nc(-c2cc(OC)c(C(F)(F)F)cc2Cl)c(F)cc1Cl [F331, Methyl 3-chloro-6-(2-chloro-5-methoxy-4-(trifluoromethyl)phenyl)-5-fluoropicolinate] | 0 to 29% | 95 to 100% | 60 to 74% | 0 to 29% | 0 to 29% | 45 to 59% | 0 to 29% | 0 to 29% | 0 to 29% | – | 0 to 29% | 45 to 59% | 45 to 59% | 0 to 29% | 0 to 29%
11 | COC(=O)c1nc(-c2cc(SC)c(C(F)(F)F)cc2Cl)c(F)cc1Cl [F332, Methyl 3-chloro-6-(2-chloro-5-(methylthio)-4-(trifluoromethyl)phenyl) 5-fluoropicolinate] | 0 to 29% | 0 to 29% | 30 to 44% | 0 to 29% | 0 to 29% | 0 to 29% | 0 to 29% | 0 to 29% | 0 to 29% | – | 0 to 29% | 0 to 29% | 0 to 29% | 0 to 29% | 0 to 29%
